# Data published in ChEMBL document CHEMBL3885861, “Open TG-GATES”.
# Species: Rattus norvegicus
# Assay: Open TG-GATES - Regimen: Single
# Type: toxicity, organism-based, Sprague-Dawley
# Parameters: regimen Single, gender Male, age 6 weeks
# Settings: in vivo, po, 300 mg/kg, route gavage, dose level Low; for APTT / Bas / Eos / Fbg / Hb / Ht / Lym / MCH / MCHC / MCV / Mono / Neu / PT / Plat / RBC / Ret / WBC: tissue Blood; for KIDNEY_L / KIDNEY_R / KIDNEY_TOTAL: tissue Kidney; for LIVER: tissue Liver; for A/G / ALP / ALT / AST / BUN / CRE / Ca / Cl / DBIL / GLC / IP / K / LDH / Na / PL / RALB / TBIL / TC / TG / TP / gamma-GTP: tissue Plasma
smiles,measurement,setting,value
Clc1c(Cl)c(Cl)c(Cl)c(Cl)c1Cl [PERCHLOROBENZENE],TERMINAL_BW,3 h,219 g
same,APTT,3 h,18.9 s
same,Bas,3 h,0%
same,Eos,3 h,1%
same,Fbg,3 h,225 mg/dL
same,Hb,3 h,13.3 g/dL
same,Ht,3 h,37.8%
same,Lym,3 h,72.2%
same,MCH,3 h,21.8 pg
same,MCHC,3 h,35.2%
same,MCV,3 h,61.7 fL
same,Mono,3 h,2.8%
same,Neu,3 h,23.2%
same,PT,3 h,11.9 s
same,Plat,3 h,121.8 x10_4/uL
same,RBC,3 h,613.6 x10_4/ul
same,Ret,3 h,7.1%
same,WBC,3 h,86.9 x10_2/uL
same,KIDNEY_L,3 h,1 g
same,KIDNEY_R,3 h,1 g
same,KIDNEY_TOTAL,3 h,2 g
same,LIVER,3 h,9.9 g
same,A/G,3 h,1.7
same,ALP,3 h,1023.6 IU/L
same,ALT,3 h,42.4 IU/L
same,AST,3 h,87.2 IU/L
same,BUN,3 h,10.2 mg/dL
same,CRE,3 h,0.4 mg/dL
same,Ca,3 h,10.7 mg/dL
same,Cl,3 h,103 meq/L
same,DBIL,3 h,0.062 mg/dL
same,GLC,3 h,195.8 mg/dL
same,IP,3 h,9.2 mg/dL
same,K,3 h,3.9 meq/L
same,LDH,3 h,211 IU/L
same,Na,3 h,140.2 meq/L
same,PL,3 h,145.8 mg/dL
same,RALB,3 h,3.4 g/dL
same,TBIL,3 h,0.1 mg/dL
same,TC,3 h,72.6 mg/dL
same,TG,3 h,109 mg/dL
same,TP,3 h,5.4 g/dL
same,gamma-GTP,3 h,1 IU/L
same,TERMINAL_BW,6 h,218.5 g
same,APTT,6 h,17.9 s
same,Bas,6 h,0.2%
same,Eos,6 h,1%
same,Fbg,6 h,233.6 mg/dL
same,Hb,6 h,13.6 g/dL
same,Ht,6 h,38.5%
same,Lym,6 h,77.2%
same,MCH,6 h,21.9 pg
same,MCHC,6 h,35.3%
same,MCV,6 h,62 fL
same,Mono,6 h,3.6%
same,Neu,6 h,17.2%
same,PT,6 h,11.9 s
same,Plat,6 h,123.5 x10_4/uL
same,RBC,6 h,623.6 x10_4/ul
same,Ret,6 h,7%
same,WBC,6 h,100 x10_2/uL
same,KIDNEY_L,6 h,1 g
same,KIDNEY_R,6 h,1 g
same,KIDNEY_TOTAL,6 h,1.9 g
same,LIVER,6 h,8.9 g
same,A/G,6 h,1.6
same,ALP,6 h,1089 IU/L
same,ALT,6 h,31.4 IU/L
same,AST,6 h,73.2 IU/L
same,BUN,6 h,8.4 mg/dL
same,CRE,6 h,0.4 mg/dL
same,Ca,6 h,10.5 mg/dL
same,Cl,6 h,102.8 meq/L
same,DBIL,6 h,0.072 mg/dL
same,GLC,6 h,190.6 mg/dL
same,IP,6 h,9.4 mg/dL
same,K,6 h,4.1 meq/L
same,LDH,6 h,224.4 IU/L
same,Na,6 h,140.8 meq/L
same,PL,6 h,130.6 mg/dL
same,RALB,6 h,3.4 g/dL
same,TBIL,6 h,0.1 mg/dL
same,TC,6 h,70.2 mg/dL
same,TG,6 h,56 mg/dL
same,TP,6 h,5.5 g/dL
same,gamma-GTP,6 h,1 IU/L
same,TERMINAL_BW,9 h,213.9 g
same,APTT,9 h,18.1 s
same,Bas,9 h,0%
same,Eos,9 h,0.8%
same,Fbg,9 h,228 mg/dL
same,Hb,9 h,13.9 g/dL
same,Ht,9 h,39.4%
same,Lym,9 h,78.6%
same,MCH,9 h,21.6 pg
same,MCHC,9 h,35.2%
same,MCV,9 h,61.5 fL
same,Mono,9 h,3%
same,Neu,9 h,16%
same,PT,9 h,12.5 s
same,Plat,9 h,125.7 x10_4/uL
same,RBC,9 h,641.2 x10_4/ul
same,Ret,9 h,6.4%
same,WBC,9 h,85.4 x10_2/uL
same,KIDNEY_L,9 h,1 g
same,KIDNEY_R,9 h,0.9 g
same,KIDNEY_TOTAL,9 h,1.9 g
same,LIVER,9 h,8.7 g
same,A/G,9 h,1.6
same,ALP,9 h,857 IU/L
same,ALT,9 h,30.6 IU/L
same,AST,9 h,75.4 IU/L
same,BUN,9 h,9.8 mg/dL
same,CRE,9 h,0.4 mg/dL
same,Ca,9 h,10.5 mg/dL
same,Cl,9 h,104.2 meq/L
same,DBIL,9 h,0.066 mg/dL
same,GLC,9 h,202.8 mg/dL
same,IP,9 h,10.2 mg/dL
same,K,9 h,3.8 meq/L
same,LDH,9 h,222 IU/L
same,Na,9 h,142.6 meq/L
same,PL,9 h,119.8 mg/dL
same,RALB,9 h,3.4 g/dL
same,TBIL,9 h,0.1 mg/dL
same,TC,9 h,63.6 mg/dL
same,TG,9 h,44.8 mg/dL
same,TP,9 h,5.5 g/dL
same,gamma-GTP,9 h,1.2 IU/L
same,TERMINAL_BW,24 h,230 g
same,APTT,24 h,17.8 s
same,Bas,24 h,0.8%
same,Eos,24 h,1%
same,Fbg,24 h,225 mg/dL
same,Hb,24 h,13.6 g/dL
same,Ht,24 h,38.8%
same,Lym,24 h,78%
same,MCH,24 h,21.9 pg
same,MCHC,24 h,35.1%
same,MCV,24 h,62.4 fL
same,Mono,24 h,3%
same,Neu,24 h,17.2%
same,PT,24 h,11.8 s
same,Plat,24 h,114.2 x10_4/uL
same,RBC,24 h,621 x10_4/ul
same,Ret,24 h,6.4%
same,WBC,24 h,81.3 x10_2/uL
same,KIDNEY_L,24 h,1 g
same,KIDNEY_R,24 h,1 g
same,KIDNEY_TOTAL,24 h,2.1 g
same,LIVER,24 h,11 g
same,A/G,24 h,1.6
same,ALP,24 h,883.2 IU/L
same,ALT,24 h,32 IU/L
same,AST,24 h,61.8 IU/L
same,BUN,24 h,13.2 mg/dL
same,CRE,24 h,0.4 mg/dL
same,Ca,24 h,10.9 mg/dL
same,Cl,24 h,103.2 meq/L
same,DBIL,24 h,0.058 mg/dL
same,GLC,24 h,202.4 mg/dL
same,IP,24 h,7.1 mg/dL
same,K,24 h,3.9 meq/L
same,LDH,24 h,196 IU/L
same,Na,24 h,141.6 meq/L
same,PL,24 h,143.8 mg/dL
same,RALB,24 h,3.3 g/dL
same,TBIL,24 h,0.1 mg/dL
same,TC,24 h,77.6 mg/dL
same,TG,24 h,118.8 mg/dL
same,TP,24 h,5.5 g/dL
same,gamma-GTP,24 h,1.2 IU/L
